For assay [1], the target named is Hsp90 chaperone machinery present in rabbit reticulocyte lysate. Nature of the assay: Hsp90-dependent refolding of thermally denatured luciferase in rabbit reticulocyte lysate (high-throughput screen and titration). Type of assay: biochemical. The conditions noted are these: for Inhibition of Hsp90-dependent refolding of luciferase in the initial screen: 12.5 µg/mL (Analyticon compounds 40 µM), Microsource screen used a cut-off of 70% inhibition. How it is done:
Rabbit reticulocyte lysate, prepared by lysing one volume of packed reticulocytes in two volumes of deionized water, followed by centrifugation for twenty minutes at 15,000 × g, was purchased from Green Hectares (Oregon, WI, USA).
Recombinant luciferase from Promega was diluted to 0.5 mg/mL in buffer consisting of 25 mM Tricine–HCl (pH 7.8), 8 mM MgSO4, 0.1 mM EDTA, and 10 mg/mL acetylated BSA. Next, the solution was adjusted to include 10% glycerol and 1% Triton X-100. Finally, the luciferase solution was heated to ~41°. Once the activity of the luciferase reached ~1% of its initial value, the mixture was placed on ice, or flash frozen in liquid nitrogen and placed at −80° for storage.
To prepare the denatured luciferase for use in re-folding assays, 125 µL of the 0.5 mg/mL mixture was added into a 10 mL mixture containing 80 mM Tris HCl, pH 7.7, 8 mM Mg(OAc)2, 300 mM KCl, 12 mM ATP, and 20 mM creatine phosphate, and 0.8 mg/mL creatine phosphokinase.
The assay buffer, which contains the luciferase substrate luciferin, consisted of 75 mM Tricine-HCl, pH 7.8, 24 mM MgSO4, 300 µM EDTA, 2 mM DTT, 313 µM D-luciferin, 640 µM coenzyme A, 660 µM ATP, 150 mM KCl, 10% (v/v) Triton X-100, 20% (v/v) glycerol, and 3.5% DMSO.
The libraries were screened for compounds that inhibited the refolding of thermally denatured luciferase using a high-throughput assay carried out with a slight modification of the method previously described. Briefly, compounds were reconstituted in 100% DMSO. Stocks of compounds purchased from Microsource, TimTec, Biofocus and BioMol were reconstituted to a concentration of 1 mg/mL. The stocks were diluted 40-fold into nano-pure water with the compounds being used at a final concentration of 12.5 µg/mL for the assay. Analyticon compounds (0.2 µmol) were reconstituted to a concentration of 4 mM, and were used at a final concentration of 40 µM in the assay. Assays were performed in 96-well microplates. To each well was added 30 µL of the water/DMSO compound solution, 15 µL of the reticulocyte lysate preparation, and 15 µL of the luciferase reagent. The plates were agitated and then allowed to incubate at 25 °C for one to three hours. After the incubation, 60 µL of assay buffer containing luciferin was added to each well. The plates were then read in a Molecular Devices LMaxII^384 microplate reader, and luminescence was measured in relative light units, with an integration time of 10 s. Compounds that inhibited luciferase refolding by approximately fifty percent or greater were then titrated into a refolding reaction containing native luciferase, to eliminate false positive hits that were direct inhibitors of luciferase as previously described. Compounds were classified as a potential Hsp90 inhibitor if they inhibited luciferase refolding by 60% or greater and there was no inhibition of the activity of native luciferase at the compound’s IC50 (concentration of the compound that inhibits luciferase refolding by 50%).
The titrations were repeated twice. For a more accurate determination of the IC50s for the compounds studied in Section 3.2.1 of this manuscript, a two-fold […] series of the compounds were used in triplicate, with the experiment being repeated three times.

The next assay deals with MCF7 breast cancer cells. Put plainly: Antiproliferation assay (MTS), MCF7 cells. Type of assay: cell-based. Conditions: Homo sapiens. How it is done: MCF7 cells were grown in Gibco Dulbecco’s Modified Essential Medium, supplemented with non-essential amino acids, 2 mM glutamine, and 10% fetal bovine serum. Cells were seeded at 2,000 cells per well in clear 96-well plates containing 100 µL of media per well, and the cells were allowed to attach overnight. The next day, serial dilutions of compounds in DMSO or DMSO control was added to the wells. Cells were then incubated at 37 °C for 48 h. Cell viability was determined using the Promega Cell Titer 96 Aqueous One Solution Cell Proliferation Assay, which makes use of a soluble tetrazolium compound that is converted into a chromophore by living cells. After incubation with compounds, 20 µL of the assay substrate solution were added to the wells, and the plate was incubated at 37 °C for an additional hour. The plate was then read at absorbance at 490 nm using a Molecular Devices Versamax plate reader. Values are expressed as percent DMSO control. All experiments were done in triplicate.

In assay [2] the test system is heme-regulated eIF2α kinase (HRI). Nature of the assay: Hsp90-dependent maturation of the heme-regulated eIF2α kinase (HRI) in reticulocyte lysate. Type of assay: biochemical, rabbit. The conditions noted are these: heme-deficient lysate, mobility shift on PAGE. The protocol: [^35S]-Labeled His-tagged HRI was translated by coupled transcription/translation for 20 min in TnT reticulocyte lysate at 30 °C. Drugs or DMSO vehicle control were then added. After an additional 10 min, the reactions (4 µL aliquots) were diluted into 28 µL volumes of heme-supplemented control lysate or heme-deficient lysate, containing the same respective drugs and DMSO vehicle control. The samples were allowed to incubate for another 40 min at 37 °C. The [^35S]-Labeled His-tagged HRI was then adsorbed from the reactions with NTA-Ni^2+ agarose resin for 1 h at 4 °C. The agarose resins were the washed four times total, in P50T, P100T 2X, and P50T again. SDS sample buffer was then added to the pellets, the samples boiled, and then separated on an 8% PAGE gel, and transferred to PVDF membrane. Membranes were dried and exposed to X-ray film for autoradiography.

The test system of assay [3] is Hsp90-dependent client proteins Cdk6, pAkt, Her2; Hsp90 and Hsp70 in MCF7 cells. Put plainly: Inhibitor-dependent depletion of Hsp90-dependent clients from MCF7 cells (Western blot). Type of assay: cell-based, human. The conditions noted are these: 24 h. How it is done: MCF7 cells were grown to confluence in Advanced DMEM/F12 (1:1; Gibco) supplemented with L-glutamine (2 mM), streptomycin (500 µg/mL), and penicillin (100 units/mL) and re-seeded at 0.4 × 10^6 cells/well/2 mL. Cells were incubated in a humidified atmosphere (37 °C, 5% CO2) for 24 h and treated with varying concentrations of compound or 0.5 µM geldanamycin in DMSO (0.25% DMSO final concentration), or vehicle (DMSO) for 24 h. Cells were harvested in cold PBS and lysed using MPER (Thermo Scientific/Pierce, USA) supplemented with protease and phosphatase inhibitors (Roche Applied Science, USA) according to manufacturer’s directions. Lysates were clarified at 14,000 g for 15 min at 4 °C. Protein concentrations were determined using the Pierce BCA protein assay kit per the manufacturer’s instructions. Equal amounts of protein (15 μg) were electrophoresed under reducing conditions (10% acrylamide gels), transferred to PVDF, and immunoblotted with the corresponding antibody (Anti-pAkt, -Her2, and -Cdk6 antibodies were from Cell Signaling; anti-actin was from Santa Cruz Biotechnology; and anti-Hsp90 and -Hsp70 were from Enzo Lifesciences). Membranes were incubated with an appropriate horseradish peroxidase-labeled secondary antibody, developed with a chemiluminescent substrate, and visualized.
In general terms: A western blot detects proteins with antibodies after separation by electrophoresis.

The test system of another assay is Plasmodium falciparum. On the set-up: method as in PMID 17913482. Conditions: cited from earlier work.
The mark [4] stands for this setting: MCF7 cells, 48 h, MTS assay, read-out: IC50 MCF7 proliferation.

Where two headings read alike, the source gives them in different places.

`C=C1C(=O)O[C@@H]2C[C@@H](C)[C@@H]3C=CC(=O)[C@@]3(C)[C@@H](O)[C@H]12` [Compound 9, Helenalin] showed an IC50 in assay [1] of around 80 µM.

As for `O=c1cc(-c2ccc(O)c(O)c2)oc2cc(O)cc(O)c12` [Compound 31, Luteolin], the “Inhibition of Hsp90-dependent refolding of luciferase in the initial screen” value in assay [1] is given as “no inhibitory activity in one of the screens”.

In the case of `CC(C)=CCC[C@]1(C)C=Cc2c(O)c3c(c(CC=C(C)C)c2O1)O[C@]12C(=C[C@@H]4C[C@H]1C(C)(C)O[C@@]2(C/C=C(/C)C(=O)O)C4=O)C3=O` [Compound 35, Gambogic acid], in assay [1], the “Inhibition of Hsp90-dependent refolding of luciferase in the initial screen” value is listed as “consistently identified as hits”.

As for `COc1cc(/C=C/C(=O)CC(=O)/C=C/c2ccc(O)c(OC)c2)ccc1O` [Compound 40, Curcumin], the “Inhibition of Hsp90-dependent refolding of luciferase in the initial screen” value in assay [1] was “consistently identified as hits”.

`CC(=O)c1c(O)c(C)c(O)c(Cc2c(O)c3c(c(C(=O)/C=C/c4ccccc4)c2O)OC(C)(C)C=C3)c1O` [Compound 47, Rottlerin] yielded an IC50 in assay [1] of around 60 µM. Besides, the IC50 in assay [1] (read-out: IC50 luciferase refolding) stood at 63 ± 5 µM. Further, the IC50 in the assay on MCF7 breast cancer cells (setting [4]) stood at 7 ± 3 µM. Further, in assay [2] (100 µM), the “Inhibition of Hsp90-dependent maturation of HRI” value (shortened to “Inhibition … of HRI”) is “inhibited the maturation of HRI”. Moreover, in assay [3] (varying concentrations), the “Depletion of Hsp90 clients (Cdk6, pAkt, Her2)” value (“Depletion of Hsp90 clients” for short) is “concentration-dependent depletion”; the “Expression of Hsp70” value is reported as “concentration-dependent increase”; the “Expression of Hsp90” value was “None of the compounds increased the expression of Hsp90”.

Take `COC(=O)[C@]1(C)CC[C@]2(C)CC[C@]3(C)C4=CC=C5C(=CC(=O)C(O)=C5C)[C@]4(C)CC[C@@]3(C)[C@@H]2C1` [Compound 49, Celastrol methyl ester]: the IC50 in assay [1] was around 2 µM.

With `CC(=O)O[C@@H]1C[C@@]2(C)[C@H](c3ccoc3)C[C@H]3O[C@]32[C@]2(C)C(=O)C(O)=C3C(C)(C)C(=O)C=C[C@]3(C)[C@@H]12` [Compound 50, Anthothecol], in assay [1] (relative to the Hsp90 inhibitor gedunin, assay not specified), the “Fold higher activity than gedunin” value is on record as “approximately 10 fold”. For the same compound, in the assay on MCF7 breast cancer cells (setting [4]), the IC50 is 0.5 ± 0.06 µM. Also, the “Inhibition … of HRI” value in assay [2] (100 µM) is given as “inhibited the maturation of HRI”. Further, in assay [3] (varying concentrations), the “Depletion of Hsp90 clients” value was “concentration-dependent depletion”; the “Expression of Hsp70” value is reported as “concentration-dependent increase”; the “Expression of Hsp90” value is given as “None of the compounds increased the expression of Hsp90”. The “Activity against the growth of Plasmodium falciparum in erythrocytes” value in the assay with Plasmodium falciparum is on record as “low micromolar activity”.

As for `CC1=CC(=O)c2c(O)cccc2C1=O` [Compound 84, Plumbagin], in assay [1], the “Inhibition of Hsp90-dependent refolding of luciferase in the initial screen” value is given as “consistently identified as hits”.

In assay [1], `C=C1CCC(O)CC1=CC=C1CCCC2(C)C1CCC2C(C)CCCC(C)C` (centres unmarked) [Compound 98] registered an IC50 of around 60 µM.

Compound `COc1c2c3c4c(c(OC)c(=O)c5c(O)cc(OC)c(c6c(OC)cc(O)c(c1=O)c63)c54)[C@@H](C(C)=O)[C@@](C)(O)C2` [Compound 116, Hypocrellin A] returned an IC50 in assay [1] of 5 to 10 µM.

Consider `C=C(C)[C@@H](CC=C(C)C)C[C@@]12C[C@@H](CC=C(C)C)C(C)(C)[C@@](CC=C(C)C)(C(=O)C(C(=O)c3ccc(O)c(O)c3)=C1O)C2=O` [Garcinol], for which, in the assay on MCF7 breast cancer cells (setting [4]), the IC50 is 4 ± 0.6 µM. In addition, in assay [2] (100 µM), the “Inhibition … of HRI” value is listed as “inhibited the maturation of HRI”. In assay [3] (varying concentrations), the “Depletion of Hsp90 clients” value is reported as “concentration-dependent depletion”; the “Expression of Hsp70” value is given as “no effect”; the “Expression of Hsp90” value is “None of the compounds increased the expression of Hsp90”.

For the compound `COc1cc(/C=C/C(=O)N2CCC=CC2=O)cc(OC)c1OC` [Piplartine], in the assay with MCF7 breast cancer cells (MCF7, 48 h, read-out: IC50 MCF7 proliferation (µM)), the IC50 amounted to 10 ± 3 µM. Besides, the “Inhibition … of HRI” value in assay [2] (100 µM) is listed as “inhibited the maturation of HRI”. Also, in assay [3] (varying concentrations), the “Depletion of Hsp90 clients” value is reported as “concentration-dependent depletion”; the “Expression of Hsp70” value is on record as “no effect”; the “Expression of Hsp90” value is “None of the compounds increased the expression of Hsp90”.

Consider `COC1=C2C[C@@H](C)C[C@H](OC)[C@H](O)[C@@H](C)/C=C(\C)[C@H](OC(N)=O)[C@@H](OC)/C=C\C=C(/C)C(=O)NC(=CC1=O)C2=O` [geldanamycin, reference compound], for which the “Inhibition … of HRI” value in assay [2] (20 µM) is listed as “inhibited the maturation of HRI”. Further, the “Expression of Hsp70” value in assay [3] (0.5 µM) is “increase in the expression of Hsp70”.

Regarding `[Na+].[Na+].[O]=[Mo](=[O])([O-])[O-]` [molybdate, sodium molybdate, reference compound], the “Inhibition … of HRI” value in assay [2] is recorded as “inhibited the maturation of HRI”.

Consider `CO[C@@H]1[C@@H](OC(N)=O)[C@@H](O)[C@H](Oc2ccc3c(O)c(NC(=O)c4ccc(O)c(CC=C(C)C)c4)c(=O)oc3c2C)OC1(C)C` [novobiocin, reference compound], for which the “Inhibition … of HRI” value in assay [2] is recorded as “inhibited the maturation of HRI”.

L-Adrenaline [Compound 99] gave an IC50 in assay [1] of around 55 µM.

Tyrothricin [Compound 74] came in with an IC50 in assay [1] of around 5 µM.

These data come from article PMC4009755, “High-Throughput Screen of Natural Product Libraries for Hsp90 Inhibitors” (Biology, 2014).
